Laboratory results from ChEMBL document CHEMBL1201862, “PubChem BioAssay data set” (2004).
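Cultured in 96-well plates, cells were exposed to test compound for 48 hours across five concentrations. GI50 marks 50% less growth.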 The source made the active and inactive calls. Rule as the data show it: active = GI50 up to about 1.1 µM and inactive = higher.

Columns and labels:
Assay in all cases: DTP human tumour cell line panel, 48 h
PC-3 = tested on: PC-3
K562 = tested on: K562
EKVX = tested on: EKVX
SW-620 = tested on: SW-620
786-0 = tested on: 786-0
T47D = tested on: T47D
UO-31 = tested on: UO-31
HCT-116 = tested on: HCT-116
CAKI-1 = tested on: CAKI-1
RXF 393 = tested on: RXF 393
SF-539 = tested on: SF-539
ACHN = tested on: ACHN
OVCAR-4 = tested on: OVCAR-4
CCRF-CEM = tested on: CCRF-CEM
HL-60 = tested on: HL-60
SNB-19 = tested on: SNB-19
HCT-15 = tested on: HCT-15
HT-29 = tested on: HT-29
SNB-75 = tested on: SNB-75
NCI-H226 = tested on: NCI-H226
SK-OV-3 = tested on: SK-OV-3
UACC-62 = tested on: UACC-62
RPMI-8226 = tested on: RPMI-8226
OVCAR-5 = tested on: OVCAR-5
SR = tested on: SR
OVCAR-3 = tested on: OVCAR-3
A549 = tested on: A549
SK-MEL-2 = tested on: SK-MEL-2
TK-10 = tested on: TK-10
HCC 2998 = tested on: HCC 2998
SK-MEL-5 = tested on: SK-MEL-5
UACC-257 = tested on: UACC-257
Hs-578T = tested on: Hs-578T
COLO 205 = tested on: COLO 205
NCI-H460 = tested on: NCI-H460
SF-268 = tested on: SF-268
NCI/ADR-RES = tested on: NCI/ADR-RES
IGROV-1 = tested on: IGROV-1
MCF7 = tested on: MCF7
U-251 = tested on: U-251
KM12 = tested on: KM12
NCI-H23 = tested on: NCI-H23
SN12C = tested on: SN12C
NCI-H522 = tested on: NCI-H522
MOLT-4 = tested on: MOLT-4
HOP-62 = tested on: HOP-62
MDA-MB-435 = tested on: MDA-MB-435
M14 = tested on: M14
HOP-92 = tested on: HOP-92
MDA-N = tested on: MDA-N
SK-MEL-28 = tested on: SK-MEL-28
MDA-MB-231 = tested on: MDA-MB-231
SF-295 = tested on: SF-295
DU-145 = tested on: DU-145
OVCAR-8 = tested on: OVCAR-8
LOX IMVI = tested on: LOX IMVI

Measured: GI50

COc1ccc(OC)c(/C=C/c2cnnc3ccccc23)c1
active: MDA-MB-435 0.638 µM | MDA-N 0.741 µM
inactive: PC-3 7.69 µM | K562 2.33 µM | EKVX 4.15 µM | SW-620 3.06 µM | 786-0 6.67 µM | T47D > 10 µM | UO-31 5.08 µM | HCT-116 3.4 µM | CAKI-1 4.61 µM | RXF 393 2.25 µM | SF-539 2.39 µM | ACHN > 10 µM | OVCAR-4 5.48 µM | CCRF-CEM 3.38 µM | HL-60 2.79 µM | SNB-19 6.46 µM | HT-29 5.31 µM | SNB-75 4.19 µM | NCI-H226 5.73 µM | SK-OV-3 5.5 µM | UACC-62 3.74 µM | RPMI-8226 3.16 µM | OVCAR-5 > 10 µM | SR 1.51 µM | OVCAR-3 3.94 µM | A549 3.27 µM | SK-MEL-2 2.16 µM | TK-10 > 10 µM | HCC 2998 5.27 µM | SK-MEL-5 3.61 µM | UACC-257 3.39 µM | Hs-578T 1.43 µM | COLO 205 4.1 µM | NCI-H460 4.11 µM | SF-268 4.79 µM | NCI/ADR-RES 2.39 µM | IGROV-1 > 10 µM | MCF7 1.85 µM | U-251 5.19 µM | KM12 2.8 µM | NCI-H23 4.8 µM | SN12C 4.17 µM | NCI-H522 3.66 µM | MOLT-4 2.65 µM | HOP-62 4.12 µM | M14 5.21 µM | HOP-92 3.89 µM | SK-MEL-28 8.47 µM | MDA-MB-231 9.46 µM | SF-295 5.4 µM | DU-145 > 10 µM | OVCAR-8 7.5 µM | LOX IMVI 3.48 µM
1.96 µM: HCT-15
